One test addresses T1, ERα (Homo sapiens, UniProt P03372).
T1 construct: purchased Panvera P2698
T1 sequence (P03372 1-595): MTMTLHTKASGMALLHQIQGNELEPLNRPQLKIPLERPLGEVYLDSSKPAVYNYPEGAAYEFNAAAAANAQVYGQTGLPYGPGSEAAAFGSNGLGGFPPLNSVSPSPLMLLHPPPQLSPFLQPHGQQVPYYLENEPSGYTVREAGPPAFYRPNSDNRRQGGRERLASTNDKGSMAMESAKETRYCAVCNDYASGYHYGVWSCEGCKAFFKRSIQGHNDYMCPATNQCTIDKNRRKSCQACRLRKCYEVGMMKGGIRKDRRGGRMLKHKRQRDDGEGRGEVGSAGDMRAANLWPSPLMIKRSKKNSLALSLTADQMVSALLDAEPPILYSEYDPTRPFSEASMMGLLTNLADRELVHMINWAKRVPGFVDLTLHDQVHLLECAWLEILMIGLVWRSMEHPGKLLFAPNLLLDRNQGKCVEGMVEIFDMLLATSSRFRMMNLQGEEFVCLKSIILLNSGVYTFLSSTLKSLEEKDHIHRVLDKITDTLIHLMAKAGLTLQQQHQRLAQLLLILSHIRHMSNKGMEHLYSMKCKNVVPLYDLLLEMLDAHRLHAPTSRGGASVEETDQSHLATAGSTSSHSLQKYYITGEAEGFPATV
The experiment in a line: Fluorescence Polarization Competition Assay, ERα binding affinity. The note with it: Fluormone ligand, read-out: Affinity for ER α. How it is done:
(§1) A number of compounds were tested for ERα and ERβ binding affinity using Panvera's Fluorescence Polarization Competition Assay Kits (cat. nos. P2698 and P2700). Briefly, ERα or ERβ were thawed on ice from −80° C. An estrogen receptor and fluorescent ligand (Fluormone TM) complex was formed at a 15/1 molar ratio for ERα and at a 10/1 molar ratio for ERβ (2X complex). Serial dilutions of the test compounds were made in assay buffer and the assay was initiated by adding 50 ul of the 2X receptor-ligand complex to 50 ul of compound solution in black 96-well plates. Zero percent competition (theoretical maximum polarization) was measured in wells containing 50 ul of buffer and 50 ul of the 2X receptor-ligand complex. The plates were incubated after gentle shaking in the dark at room temperature. Polarization values (mP) were read no longer than 7 hours after the reaction was started with a FARCyte Fluorescent reader (Amersham) at excitation and emission wavelengths of 485 nm and 535 nm, respectively. Data was analyzed using non-linear regression and IC50 values determined using GraphPad Prism. Estradiol was used as the reference compound.
On the technique in general: Polarisation of emitted light reports the rotation of a fluorescent probe.

A further test concerns the target T2, ERβ (Homo sapiens, UniProt Q92731).
T2 construct: purchased Panvera P2700
The experiment in a line: Fluorescence Polarization Competition Assay, ERβ binding affinity. The note with it: Fluormone ligand, read-out: Affinity for ER β. How it is done:
as §1

For test [1], the system named is primary rat oligodendrocyte progenitor cells. The experiment in a line: Oligodendrocyte Toxicity Assay (LDH), progenitor cells. It counts as cell-based. The note with it: Oligodendrocyte progenitor cell, 1 hour pretreatment, LDH after 24 hours. As for the experimental part: (§2) Primary rat oligodendrocyte progenitor cells were obtained from the cerebra of 2-3 day old postnatal rats (Sprague Dawley). The meninges were removed and tissue was mechanically dissociated. Cells were plated on T75 flasks and fed with DMEM +10% FBS.
(§3) Enriched OLPs were collected by mechanical separation from the astrocytic monolayer and were expanded in serum free media (SFM) supplemented with the mitogens, PDGF-AA (10 ng/mI) and FGF-2 (10 ng/mI).
Cells were plated in 96-well plates, 10,000 per well. Medium was changed to fresh medium and cells were pretreated with compounds for 1 hour. Toxins were added to give the following final concentrations: Sin-110 mM, Camptothecin 1 μM
(§4) After 24 hours, medium was removed and assayed for LDH activity using the Promega cytotox 96 kit (catalog# G1780). Results were calculated as percent protection against toxin-induced toxicity.
(§5) These compounds have been assessed for their efficacy in protection against cell death produced by toxic agents such as SIN-1 (3-morpholino-sydnonimine, producing peroxynitrite) and camptothecin. The target cells assessed in vitro are primary cultures of rodent oligodendrocyte progenitors and their mature counterparts.

Another test concerns mature oligodendrocytes. Description: Oligodendrocyte Toxicity Assay (LDH), mature oligodendrocytes. It counts as cell-based. The note with it: Rattus norvegicus; protection against SIN-1-induced toxicity; 1 hour pretreatment, LDH after 24 hours. As for the experimental part:
as §2, §3
To generate mature oligodendrocytes, progenitor cells were switched to SFM supplemented with IGF-1 (10ng/ml) 24 hours after plating and cells were grown under these conditions for 7 days prior to experimental assays.
Cells were plated in 96-well plates, 10,000 per well. Medium was changed to fresh medium and cells were pretreated with compounds for 1 hour. […]
as §4, §5

Where two headings read alike, the source gives them in different places. Where only a bound is given, the exact number is not on record here.

T2 sequence (Q92731 whole entry): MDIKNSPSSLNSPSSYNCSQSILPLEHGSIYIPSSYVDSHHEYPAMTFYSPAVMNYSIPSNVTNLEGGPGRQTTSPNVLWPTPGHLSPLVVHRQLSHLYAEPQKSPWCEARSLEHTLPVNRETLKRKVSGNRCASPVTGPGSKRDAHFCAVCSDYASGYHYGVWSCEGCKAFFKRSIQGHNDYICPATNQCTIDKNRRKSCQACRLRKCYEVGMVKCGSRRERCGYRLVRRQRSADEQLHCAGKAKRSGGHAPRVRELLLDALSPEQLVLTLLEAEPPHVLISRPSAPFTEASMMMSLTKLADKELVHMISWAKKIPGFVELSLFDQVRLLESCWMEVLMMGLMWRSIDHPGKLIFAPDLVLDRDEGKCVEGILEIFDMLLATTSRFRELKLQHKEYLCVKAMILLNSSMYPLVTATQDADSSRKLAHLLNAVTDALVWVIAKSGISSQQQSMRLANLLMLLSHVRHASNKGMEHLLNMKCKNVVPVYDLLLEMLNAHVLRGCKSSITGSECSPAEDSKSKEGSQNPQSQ

On to `Oc1ccc(-c2ccc3cc(O)ccc3c2Cl)cc1` [5-chloro-6-(4-hydroxyphenyl)-2-naphthalenol], for which the IC50 was 35.4 nM at ERα; 3 nM at ERβ; 2170 nM in test [1] (protection against SIN-1-induced toxicity, read-out: Progenitor Oligodendrocytes SIN-1 IC50); below 3000 nM in test [1] (protection against camptothecin (1 μM)-induced toxicity, read-out: Progenitor Oligodendrocytes Camptothecin IC50); above 30000 nM in the test with mature oligodendrocytes.

The values are drawn from US20070249732A1, “USE OF CERTAIN PHENYL NAPTHYL COMPOUNDS FOR PROTECTION OF NEURONS AND OLIGODENDROCYTES IN THE TREATMENT OF MULTIPLE SCLEROSIS (MS)” (AVENTIS PHARMACEUTICALS INC., priority 2005, published 2007).
